Measured values published in publication PMC9841589, “Identification of 2-Aminoacyl-1,3,4-thiadiazoles as Prostaglandin E2 and Leukotriene Biosynthesis Inhibitors” (ACS Medicinal Chemistry Letters, 2022).

Molecular target: T1, Human recombinant sEH (Homo sapiens, UniProt P34913)
T1 construct: made in house; host or cells: Sf9 cells infected with a baculovirus provided by Dr. B. Hammock
T1 sequence (P34913 1-555): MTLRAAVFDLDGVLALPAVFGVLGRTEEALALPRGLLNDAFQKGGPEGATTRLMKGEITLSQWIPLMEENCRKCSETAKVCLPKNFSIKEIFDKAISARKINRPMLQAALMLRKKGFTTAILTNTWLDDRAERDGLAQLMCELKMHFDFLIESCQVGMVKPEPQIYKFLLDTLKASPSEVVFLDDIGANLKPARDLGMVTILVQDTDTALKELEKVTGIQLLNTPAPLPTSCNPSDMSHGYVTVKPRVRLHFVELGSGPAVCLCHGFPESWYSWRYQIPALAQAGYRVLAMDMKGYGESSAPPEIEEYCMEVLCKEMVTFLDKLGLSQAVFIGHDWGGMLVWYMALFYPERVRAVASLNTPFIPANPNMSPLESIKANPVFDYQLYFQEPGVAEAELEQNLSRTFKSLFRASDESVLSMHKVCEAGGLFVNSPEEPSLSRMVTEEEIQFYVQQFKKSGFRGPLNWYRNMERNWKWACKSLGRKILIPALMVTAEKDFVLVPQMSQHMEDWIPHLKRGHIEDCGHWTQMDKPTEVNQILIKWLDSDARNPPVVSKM
Experiment: Activity assay of human recombinant sEH
Type: biochemical
Conditions: percentage of uninhibited control (100%), n = 3, n.i.: no inhibitory activity observed, read-out: sEH residual activity (%)
Protocol: 8) plus 5 mM glutathione, 100 µM EDTA and 5 µM hemoglobin) to a final concentration of 50 U/mL for COX-1 and 20 U/mL for COX-2, and pre-incubated with test compounds 3, 6, 7, and 9 (10 µM) or vehicle (0.1% DMSO) over 5 min at rt. After 1 min at 37 °C, reactions were started after addition of arachidonic acid to a final concentration of 5 µM for COX-1 and 2 µM for COX-2. After 5 min at 37 °C, 1 mL of ice-cold methanol was added for stopping the reactions on ice. Then, PGB 1 as internal standard and 530 µl PBS plus HCl were added, and solid-phase extraction was performed as reported before.4-6, 17-19 COXs product formation (12-HHT) was determined using RP-HPLC. 4-6, 17-19 Indomethacin (10 µM) and celecoxib (5 µM) were used as reference drugs.
Expression, purification and activity assay of human recombinant sEH
Human recombinant sEH was expressed in Sf9 cells and was infected using a baculovirus, provided by Dr. B. Hammock, University of California, Davis, CA. After 72 hours, cells were pelleted and sonicated (3 × 10 sec) at 4 °C in lysis buffer (50 mM NaHPO 4, pH = 8, 300 mM NaCl, 10% glycerol, 1 mM EDTA, 1 mM phenylmethanesulfonyl fluoride, 10 µg/mL of leupeptin, and 60 µg/mL of soybean trypsin inhibitor). Lysates were centrifuged over 60 min at 4 °C (100,000 × g), and supernatants were collected and submitted to a benzylthio-sepharose-affinity chromatography for sEH purification by elution with 4-fluorochalcone oxide in PBS plus 1 mM DTT and 1 mM EDTA.720 Bio-Rad protein detection kit (Bio-Rad Laboratories, Munich, Germany) was used for total protein on dialyzed and concentrated (Millipore Amicon-Ultra-15 centrifugal filter) enzyme solution and a fluorescence-based assay was used to define the epoxide hydrolase activity. 5,618, 19 Then, sEH was diluted in Tris buffer (25 mM, pH = 7) supplemented with 0.1 mg/mL of BSA to an appropriate enzyme concentration and pre-incubated with test compounds 3, 6, 7, 9 (10 µM) or vehicle (0.1% DMSO) for 15 min at rt. 50 µM 3-phenyl-cyano(6-methoxy-2-naphthalenyl)methyl ester-2-oxiraneacetic acid (PHOME), a non-fluorescent compound, was added for starting the reaction.
PHOME is enzymatically converted into a fluorescent compound, 6-methoxy-naphtaldehyde, detectable by using a spectrofluorometer setting λ em = 465 nm, λ ex = 330 nm. After 60 min, ZnSO 4 […]
(200 mM) was added for stopping the reaction, and then fluorescence was detected. AUDA (12-(3-adamantan-1-yl-ureido)-dodecanoic acid) (100 nM) was used as reference drug.
Human neutrophils and monocytes were freshly isolated from leukocyte concentrates obtained from the Institute of Transfusion Medicine, University Hospital Jena. […]

| SMILES | remaining activity at 10 µM [%] |
| --- | --- |
| Nc1ccccc1-c1ccc(-c2nnc(NC(=O)c3ccccc3Br)s2)cc1 [compound 7] | 164 |
| Nc1ccccc1-c1ccc(-c2nnc(NC(=O)c3c(Cl)ccnc3Cl)s2)cc1 [compound 9] | 83.9 |
| Cc1cc(C(=O)Nc2nnc(-c3ccc(-c4ccccc4N)cc3)s2)cc(Cl)n1 [compound 6] | 67.7 |
| O=C(Nc1nnc(-c2ccc(-c3cccc(O)c3)cc2)s1)c1ccccc1Br [compound 3] | 96 |
